From patent US11970463B2, “Compounds and their use” (ASTRAZENECA AB, priority 2021, dated 2024)
≈ marks a conversion by molar mass, not a printed value. Read-outs that look alike come from different tables or passages of the source.

Key:
IL-1β production = assay: LPS/ATP test in mice, peritoneal IL-1β by ELISA; format: in vivo, BALB/cAJcl mice; settings: Mus musculus, LPS/ATP i.p.; for inhibition at 3 mg/kg: 3 mg/kg orally; for inhibition at 1 mg/kg: 1 mg/kg orally
Human NLRP3 [1] = biological target: T1, Human NLRP3 (Homo sapiens (Human), UniProt Q96P20); settings: Test C IC50, IL-1β release, THP-1 cells, LPS 2 μg/mL 24 h, BzATP 1 mM
hERG = hERG (Homo sapiens (Human), UniProt Q12809); assay: hERG assay (Test D), SyncroPatch 384PE patch clamp, hERG-expressing CHO cells; format: cell-based; settings: rt
Human NLRP3 [2] = biological target: T1, Human NLRP3; assay: Human NLRP3 speck formation assay (Test A), nigericin triggered ASC-speck formation in ASC-GFP reporter monocytes
Human NLRP3 [3] = biological target: T1, Human NLRP3
[4] = Solubility (Test F), McIlvaine buffer pH 6.5; format: physicochemical; settings: disodium hydrogenphosphate-citric acid (McIlvaine) buffer, 25 °C, pH 6.5, aqueous buffer, thermodynamic from solid, McIlvaine buffer pH 6.5, 25° C., 24 to 72 h; theoretical maximum 200 μM
Solubility (Test E) = format: physicochemical

T1 sequence (Q96P20 whole entry): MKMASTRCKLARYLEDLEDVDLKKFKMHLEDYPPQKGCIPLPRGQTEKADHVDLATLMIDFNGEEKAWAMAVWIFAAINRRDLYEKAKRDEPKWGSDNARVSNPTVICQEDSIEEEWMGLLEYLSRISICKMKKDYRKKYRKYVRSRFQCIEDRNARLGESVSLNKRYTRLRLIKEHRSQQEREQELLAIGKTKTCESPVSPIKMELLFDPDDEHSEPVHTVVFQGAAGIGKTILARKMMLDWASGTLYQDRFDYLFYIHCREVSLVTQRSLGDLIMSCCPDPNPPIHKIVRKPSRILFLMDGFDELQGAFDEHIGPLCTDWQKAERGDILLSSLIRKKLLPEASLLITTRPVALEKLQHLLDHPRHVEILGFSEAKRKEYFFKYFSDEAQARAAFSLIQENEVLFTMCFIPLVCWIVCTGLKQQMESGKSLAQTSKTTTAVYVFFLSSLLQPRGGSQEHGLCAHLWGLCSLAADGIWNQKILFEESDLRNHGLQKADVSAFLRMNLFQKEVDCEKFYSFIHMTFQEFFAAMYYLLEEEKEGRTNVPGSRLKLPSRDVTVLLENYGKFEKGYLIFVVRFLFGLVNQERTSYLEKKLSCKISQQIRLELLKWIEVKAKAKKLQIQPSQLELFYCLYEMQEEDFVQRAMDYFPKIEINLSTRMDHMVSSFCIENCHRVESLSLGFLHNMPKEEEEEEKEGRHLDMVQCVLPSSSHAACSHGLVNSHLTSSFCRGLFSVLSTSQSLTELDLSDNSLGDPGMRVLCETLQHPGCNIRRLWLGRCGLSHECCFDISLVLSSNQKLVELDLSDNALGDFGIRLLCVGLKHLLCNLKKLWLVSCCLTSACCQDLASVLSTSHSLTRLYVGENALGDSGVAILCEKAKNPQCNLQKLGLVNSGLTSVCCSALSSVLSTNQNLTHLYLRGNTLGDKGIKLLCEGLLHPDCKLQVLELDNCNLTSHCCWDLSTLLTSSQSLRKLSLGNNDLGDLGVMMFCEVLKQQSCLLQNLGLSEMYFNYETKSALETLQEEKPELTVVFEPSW
Sequence of hERG (Q12809 whole entry): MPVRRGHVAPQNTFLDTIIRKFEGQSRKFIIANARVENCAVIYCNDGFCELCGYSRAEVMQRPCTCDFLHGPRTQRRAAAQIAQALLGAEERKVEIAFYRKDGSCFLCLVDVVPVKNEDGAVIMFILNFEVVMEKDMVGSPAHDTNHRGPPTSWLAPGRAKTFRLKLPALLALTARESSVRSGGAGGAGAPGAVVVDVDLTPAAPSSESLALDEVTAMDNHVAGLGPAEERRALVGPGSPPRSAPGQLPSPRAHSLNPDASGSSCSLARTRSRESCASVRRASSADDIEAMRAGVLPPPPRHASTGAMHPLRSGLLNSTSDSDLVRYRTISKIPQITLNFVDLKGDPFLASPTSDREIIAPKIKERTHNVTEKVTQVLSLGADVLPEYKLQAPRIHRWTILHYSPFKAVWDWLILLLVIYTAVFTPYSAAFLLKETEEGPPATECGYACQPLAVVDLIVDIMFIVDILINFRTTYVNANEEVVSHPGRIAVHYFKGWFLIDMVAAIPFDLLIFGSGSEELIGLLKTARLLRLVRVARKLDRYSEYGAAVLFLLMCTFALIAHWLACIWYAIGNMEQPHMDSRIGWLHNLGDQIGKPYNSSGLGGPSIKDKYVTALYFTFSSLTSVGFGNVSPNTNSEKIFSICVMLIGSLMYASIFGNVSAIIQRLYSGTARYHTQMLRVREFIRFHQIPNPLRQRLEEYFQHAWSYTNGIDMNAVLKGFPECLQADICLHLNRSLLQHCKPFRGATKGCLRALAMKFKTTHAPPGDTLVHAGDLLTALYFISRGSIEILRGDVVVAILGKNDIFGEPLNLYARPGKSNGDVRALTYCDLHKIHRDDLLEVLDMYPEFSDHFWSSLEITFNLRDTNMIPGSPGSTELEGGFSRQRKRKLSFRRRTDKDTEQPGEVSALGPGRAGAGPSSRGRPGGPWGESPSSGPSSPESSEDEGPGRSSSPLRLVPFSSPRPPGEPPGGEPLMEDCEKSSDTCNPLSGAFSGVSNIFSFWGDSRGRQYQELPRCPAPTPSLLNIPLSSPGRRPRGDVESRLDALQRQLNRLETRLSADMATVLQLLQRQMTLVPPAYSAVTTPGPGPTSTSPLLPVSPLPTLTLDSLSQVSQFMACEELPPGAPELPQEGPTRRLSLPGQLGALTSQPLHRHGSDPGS

| IC50 (Human NLRP3 [1]) [nM] | EC50 (Human NLRP3 [2]) [nM] | IC50 (Human NLRP3 [3]) [nM] | solubility [4] [µg/mL] | solubility (Solubility (Test E)) [µM] | SMILES | inhibition at 3 mg/kg (IL-1β production) [%] | IC50 (hERG) [µM] | inhibition at 1 mg/kg (IL-1β production) [%] |
| --- | --- | --- | --- | --- | --- | --- | --- | --- |
| 3 | 25 | 8 | 14.5 (≈ 34.5 µM) | 263 (≈ 111 µg/mL) | Oc1cc(OC(F)(F)F)ccc1-c1nnc(N[C@@H]2CCCC[C@H]2O)c2cnccc12 [Example 56, 2-[4-[[(1R,2R)-2-hydroxycyclohexyl]amino]pyrido[3,4-d]pyridazin-1-yl]-5-(trifluoromethoxy)phenol] | 98 | 19 |  |
| 9 | 44 | 25 | 10.4 (≈ 24.6 µM) | 121 (≈ 51.1 µg/mL) | Oc1cc(C(F)(F)F)cc(F)c1-c1nnc(N[C@@H]2CCC[C@H](O)C2)c2cnccc12 [Example 45, 3-fluoro-2-[4-[[(1R,3S)-3-hydroxycyclohexyl]amino]pyrido[3,4-d]pyridazin-1-yl]-5-(trifluoromethyl)phenol] | 82 | > 40 |  |
| < 3 | 17 | 12 | 10.3 (≈ 26.4 µM) | 26 (≈ 10.1 µg/mL) | Oc1cc(C(F)(F)F)ccc1-c1nnc(N[C@@H]2CC[C@H](O)C2)c2cnccc12 [Example 60, 2-(4-(((1R,3S)-3-hydroxycyclopentyl)amino)pyrido[3,4-d]pyridazin-1-yl)-5-(trifluoromethyl)phenol] | 97 | > 40 | 60 |
| 5 | 16 | 9 | > 78.1 | 47 (≈ 18.3 µg/mL) | Oc1cc(C(F)(F)F)ccc1-c1nnc(N[C@@H]2CC[C@@H](O)C2)c2cnccc12 [Example 59, 2-(4-(((1R,3R)-3-hydroxycyclopentyl)amino)pyrido[3,4-d]pyridazin-1-yl)-5-(trifluoromethyl)phenol] | 70 | > 40 | 44 |
